Source: the supplement of paper PMC10307832

Key:
Assay in all cases: relative viability (nuclei count vs DMSO), 5 days (fraction); higher = more cells survive
Tipifarnib + Bortezomib = compound: Cn1cncc1[C@@](N)(c1ccc(Cl)cc1)c1ccc2c(c1)c(-c1cccc(Cl)c1)cc(=O)n2C [Tipifarnib] + CC(C)C[C@H](NC(=O)[C@H](Cc1ccccc1)NC(=O)c1cnccn1)B(O)O [Bortezomib] (partner 0.002 µM)
Outline: (§1)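 Relative viability is defined as nuclei in treated wells over nuclei in vehicle wells. Duplicate plates were run and medians reported. Lung cancer cell lines in 1536-well plates were dosed by pin tool one day after seeding, with one drug or with a fixed anchor-drug dose plus five library-drug doses (not always all listed) in √10 steps, and nuclei were counted after 5 days.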

Tipifarnib + Pictilisib = compound: Cn1cncc1[C@@](N)(c1ccc(Cl)cc1)c1ccc2c(c1)c(-c1cccc(Cl)c1)cc(=O)n2C [Tipifarnib] + CS(=O)(=O)N1CCN(Cc2cc3nc(-c4cccc5[nH]ncc45)nc(N4CCOCC4)c3s2)CC1 [Pictilisib] (partner 1 µM)
Outline: as §1

Tipifarnib + Olaparib = compound: Cn1cncc1[C@@](N)(c1ccc(Cl)cc1)c1ccc2c(c1)c(-c1cccc(Cl)c1)cc(=O)n2C [Tipifarnib] + O=C(c1cc(Cc2n[nH]c(=O)c3ccccc23)ccc1F)N1CCN(C(=O)C2CC2)CC1 [Olaparib] (partner 8 µM)
Outline: as §1

Tipifarnib + Trametinib = compound: Cn1cncc1[C@@](N)(c1ccc(Cl)cc1)c1ccc2c(c1)c(-c1cccc(Cl)c1)cc(=O)n2C [Tipifarnib] + CC(=O)Nc1cccc(-n2c(=O)n(C3CC3)c(=O)c3c(Nc4ccc(I)cc4F)n(C)c(=O)c(C)c32)c1 [Trametinib] (partner 0.02 µM)
Outline: as §1

Cell Line | relative viability (Tipifarnib + Bortezomib; first compound 0.01 µM) | relative viability (Tipifarnib + Bortezomib; first compound 0.03162 µM) | relative viability (Tipifarnib + Bortezomib; first compound 0.1 µM) | relative viability (Tipifarnib + Bortezomib; first compound 0.3162 µM) | relative viability (Tipifarnib + Bortezomib; first compound 1 µM) | relative viability (Tipifarnib + Pictilisib; first compound 0.01 µM) | relative viability (Tipifarnib + Pictilisib; first compound 0.03162 µM) | relative viability (Tipifarnib + Pictilisib; first compound 0.1 µM) | relative viability (Tipifarnib + Pictilisib; first compound 0.3162 µM) | relative viability (Tipifarnib + Pictilisib; first compound 1 µM) | relative viability (Tipifarnib + Olaparib; first compound 0.01 µM) | relative viability (Tipifarnib + Olaparib; first compound 0.03162 µM) | relative viability (Tipifarnib + Olaparib; first compound 0.1 µM) | relative viability (Tipifarnib + Olaparib; first compound 0.3162 µM) | relative viability (Tipifarnib + Olaparib; first compound 1 µM) | relative viability (Tipifarnib + Trametinib; first compound 0.01 µM) | relative viability (Tipifarnib + Trametinib; first compound 0.03162 µM) | relative viability (Tipifarnib + Trametinib; first compound 0.1 µM) | relative viability (Tipifarnib + Trametinib; first compound 0.3162 µM) | relative viability (Tipifarnib + Trametinib; first compound 1 µM)
HCC-44 | 0.87 | 0.684 | 0.78 | 0.609 | 0.461 | 0.667 | 0.619 | 0.451 | 0.262 | 0.363 | 0.973 | 0.925 | 0.993 | 0.957 | 0.942 | 0.992 | 0.942 | 0.908 | 0.781 | 0.891
HCC-78 | 0.606 | 0.45 | 0.46 | 0.469 | 0.462 | 0.19 | 0.24 | 0.191 | 0.2 | 0.176 | 0.93 | 1.01 | 0.863 | 0.758 | 0.636 | 0.966 | 0.766 | 0.647 | 0.623 | 0.664
HCC-366 | 1.09 | 0.887 | 0.483 | 0.315 | 0.07 | 0.145 | 0.133 | 0.0968 | 0.0769 | 0.0755 | 0.302 | 0.327 | 0.164 | 0.199 | 0.106 | 0.415 | 0.371 | 0.197 | 0.147 | 0.102
HCC-827 | 0.975 | 0.955 | 0.858 | 0.68 | 0.68 | 0.955 | 0.905 | 0.775 | 0.653 | 0.675 | 0.68 | 0.693 | 0.545 | 0.443 | 0.478 | 0.529 | 0.598 | 0.481 | 0.479 | 0.504
HOP-62 | 1 | 0.188 | 0.222 | 0.275 | 0.281 | 0.506 | 0.158 | 0.24 | 0.3 | 0.26 | 0.337 | 0.395 | 0.205 | 0.193 | 0.2 | 0.375 | 0.297 | 0.258 | 0.261 | 0.282
IA-LM | 0.354 | 0.407 | 0.28 | 0.292 | 0.265 | 0.133 | 0.121 | 0.136 | 0.114 | 0.114 | 0.494 | 0.504 | 0.485 | 0.256 | 0.404 | – | – | – | – | –
LC-2-ad | 0.984 | 0.486 | 0.491 | 0.443 | 0.185 | 0.515 | 0.371 | 0.255 | 0.325 | 0.191 | 0.69 | 0.667 | 0.666 | 0.533 | 0.515 | 0.938 | 0.661 | 0.669 | 0.561 | 0.532
LK-2 | – | – | – | – | – | 0.615 | 0.5 | 0.541 | 0.305 | 0.485 | 0.779 | 0.651 | 0.443 | 0.329 | 0.347 | 0.613 | 0.971 | 0.766 | 0.559 | 0.597
NCI-H358 | – | – | – | – | – | 0.387 | 0.367 | 0.362 | 0.347 | 0.268 | 0.607 | 0.578 | 0.542 | 0.48 | 0.34 | 0.143 | 0.102 | 0.133 | 0.107 | 0.135
NCI-H522 | – | – | – | – | – | – | – | – | – | – | 0.633 | 0.677 | 0.621 | 0.67 | 0.542 | 0.802 | 0.834 | 0.739 | 0.68 | 0.696
NCI-H1299 | 0.988 | 0.954 | 0.929 | 0.847 | 0.816 | 0.64 | 0.837 | 0.422 | 0.35 | 0.298 | 0.984 | 0.932 | 0.973 | 0.791 | 0.783 | – | – | – | – | –
NCI-H1395 | – | – | – | – | – | 0.578 | 0.547 | 0.538 | 0.47 | 0.521 | 0.444 | 0.5 | 0.454 | 0.421 | 0.473 | 1.25 | 0.966 | 0.946 | 0.862 | 0.967
NCI-H1563 | 0.996 | 0.881 | 0.87 | 0.871 | 0.748 | 0.669 | 0.64 | 0.655 | 0.628 | 0.589 | – | – | – | – | – | – | – | – | – | –
NCI-H1648 | – | – | – | – | – | – | – | – | – | – | 0.868 | 0.757 | 0.572 | 0.533 | 0.456 | 0.481 | 0.414 | 0.523 | 0.466 | 0.481
NCI-H1703 | 0.296 | 0.262 | 0.304 | 0.195 | 0.186 | 0.239 | 0.234 | 0.201 | 0.21 | 0.214 | 0.427 | 0.266 | 0.16 | 0.176 | 0.17 | – | – | – | – | –
NCI-H1793 | – | – | – | – | – | 0.446 | 0.256 | 0.307 | 0.247 | 0.265 | 0.875 | 0.718 | 0.809 | 0.695 | 0.608 | 0.426 | 0.37 | 0.342 | 0.381 | 0.339
NCI-H1944 | – | – | – | – | – | 0.38 | 0.313 | 0.348 | 0.295 | 0.279 | 0.41 | 0.364 | 0.356 | 0.376 | 0.382 | 0.438 | 0.371 | 0.348 | 0.297 | 0.302
NCI-H2170 | – | – | – | – | – | 0.317 | 0.291 | 0.295 | 0.278 | 0.222 | 0.687 | 0.582 | 0.536 | 0.47 | 0.474 | 1.04 | 0.876 | 0.793 | 0.716 | 0.655
NCI-H2342 | – | – | – | – | – | – | – | – | – | – | 0.536 | 0.463 | 0.425 | 0.371 | 0.396 | 0.778 | 0.968 | 0.803 | 0.547 | 0.65
SK-MES-1 | – | – | – | – | – | 0.349 | 0.401 | 0.395 | 0.247 | 0.239 | 0.733 | 0.612 | 0.783 | 0.622 | 0.459 | 0.465 | 0.539 | 0.54 | 0.459 | 0.601
SW 900 | – | – | – | – | – | – | – | – | – | – | 0.508 | 0.545 | 0.494 | 0.406 | 0.381 | 0.517 | 0.465 | 0.489 | 0.478 | 0.332
